Measured values taken from patent US20120095056A1, “2,5-DISUBSTITUTED TETRAZOLE DERIVATIVES AND THEIR USE AS NICOTINIC ACETYLCHOLINE RECEPTOR MODULATORS” (NEUROSEARCH A/S, priority 2009, published 2012).

Experiments:
[1] = biological target: T1, human nicotinic acetylcholine receptor subtype a4b2 (Homo sapiens, UniProt P17787+P43681); assay: FLIPR nAChR a4b2 positive allosteric modulator activity (modulation of nicotine-induced response); type: cell-based; conditions: shift of nicotine pEC50 in the presence of 10 μM test compound compared to nicotine alone, HEK-293 cells stably expressing hα4β2
T1 construct: expressed in transfected cells
T1 sequence (P43681 29-627 limits assumed): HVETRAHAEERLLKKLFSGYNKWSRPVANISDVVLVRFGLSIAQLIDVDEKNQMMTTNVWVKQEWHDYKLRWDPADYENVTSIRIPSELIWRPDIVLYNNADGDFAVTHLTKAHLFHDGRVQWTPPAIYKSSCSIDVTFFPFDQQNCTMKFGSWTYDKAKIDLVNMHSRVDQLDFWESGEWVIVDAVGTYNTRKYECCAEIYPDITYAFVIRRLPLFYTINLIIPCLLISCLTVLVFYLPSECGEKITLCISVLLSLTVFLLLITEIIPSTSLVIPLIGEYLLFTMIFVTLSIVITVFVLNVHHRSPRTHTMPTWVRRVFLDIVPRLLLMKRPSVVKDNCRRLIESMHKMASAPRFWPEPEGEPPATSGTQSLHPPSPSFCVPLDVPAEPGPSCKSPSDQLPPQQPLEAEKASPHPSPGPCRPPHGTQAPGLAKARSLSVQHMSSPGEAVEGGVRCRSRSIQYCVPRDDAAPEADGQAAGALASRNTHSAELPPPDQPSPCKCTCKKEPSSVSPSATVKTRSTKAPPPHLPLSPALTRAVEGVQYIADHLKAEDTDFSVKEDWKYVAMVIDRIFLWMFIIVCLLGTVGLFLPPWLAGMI
T1 sequence (P17787 26-502): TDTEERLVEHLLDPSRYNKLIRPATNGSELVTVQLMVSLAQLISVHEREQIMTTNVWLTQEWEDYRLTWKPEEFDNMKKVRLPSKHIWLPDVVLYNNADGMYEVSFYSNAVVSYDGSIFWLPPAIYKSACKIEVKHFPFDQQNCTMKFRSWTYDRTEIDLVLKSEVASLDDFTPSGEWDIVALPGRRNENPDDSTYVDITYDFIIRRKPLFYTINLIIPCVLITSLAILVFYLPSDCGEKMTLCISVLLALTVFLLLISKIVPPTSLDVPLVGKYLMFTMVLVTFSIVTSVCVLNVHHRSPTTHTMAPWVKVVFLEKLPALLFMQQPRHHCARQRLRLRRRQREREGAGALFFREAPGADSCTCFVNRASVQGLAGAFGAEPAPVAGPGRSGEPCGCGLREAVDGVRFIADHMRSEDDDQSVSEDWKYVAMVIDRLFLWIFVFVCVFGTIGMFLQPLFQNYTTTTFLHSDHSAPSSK
Method: Characterization of hα4β2 Positive Allosteric Modulators Using FLIPR
The modulator activity is determined as a fluorescence-based assay using a Fluorometric Imaging Plate Reader (FLIPR) as described below in more detail.
Full concentration-response curves of nicotine +/− test compound are generated and delta pEC50 values are calculated based on EC50 values for nicotine +/− test compound. EC50 values (Effective Concentration 50%) represent the concentration of the nicotine, at which the nicotine-induced response is 50% of the maximal nicotine-induced response.

SMILES	Delta pEC50 [1]	melting point [°C]
N#Cc1ccc(-n2nnc(-c3cccnc3)n2)cc1C#N [Compound 2.14, 4-[5-(3-Pyridyl)tetrazol-2-yl]phthalonitrile]	1.1	
N#Cc1cccc(-n2nnc(-c3ccc(F)nc3)n2)c1 [Compound 2.10, 3-[5-(6-Fluoro-3-pyridyl)tetrazol-2-yl]benzonitrile]	1.3	
N#Cc1cccc(-c2nnn(-c3cccnc3)n2)c1 [Compound 2.2, 3-(2-Pyridin-3-yl-2h-tetrazol-5-yl)-benzonitrile]	1.9	185 to 205
N#Cc1cccc(-c2nnn(-c3cncc(F)c3)n2)c1 [Compound 2.6, 3-[2-(5-Fluoro-3-pyridyl)tetrazol-5-yl]benzonitrile]	1.8	
Cl.N#Cc1cccc(-c2nnn(-c3ccc(F)nc3)n2)c1 [Compound 2.3, 3-[2-(6-Fluoro-3-pyridyl)tetrazol-5-yl]benzonitrile hydrochloride]	1.7	168 to 170
N#Cc1cccc(-n2nnc(-c3cncc(F)c3)n2)c1 [Compound 2.9, 3-[5-(5-Fluoro-3-pyridyl)tetrazol-2-yl]benzonitrile]	1.6	
N#Cc1cccc(-n2nnc(-c3cccnc3)n2)c1 [Compound 2.1, 3-(5-Pyridin-3-yl-tetrazol-2-yl)-benzonitrile]	1.9	
N#Cc1cccc(-c2nnn(-c3cncc(Br)c3)n2)c1 [Compound 2.5, 3-[2-(5-Bromo-3-pyridyl)tetrazol-5-yl]benzonitrile]		175 to 191
